Reference: US6838436B1, “Inhibitors of proteasomal activity for stimulating bone growth” (Osteoscreen Inc., priority 1998, dated 2005)

Tested on: hair follicles of skin explants
Experiment: Skin explants from mice during telogen (Example 16)
Format: cell-based
Settings: 72 hours
Source text: In the untreated control explants, the follicles were few and small.

Nc1cc(N2CCCCC2)nc(N)[n+]1[O-] [Minoxidil]
concentrations causing these changes, relative to the proteasome inhibitors: 10,000 fold
